Assay results taken from patent publication US20250195530A1, “POLQ INHIBITORS” (ASTRAZENECA AB, priority 2022, published 2025).
Like-named read-outs stand apart in the source and are kept apart here.

System: DLD-1 BRCA2−/− cells
Assay: Homologous recombination synthetic lethal inhibition of proliferation, DLD-1 BRCA2-/- (Cell Titre Glo 3D)
Format: cell-based
Details: for IC50: Homo sapiens
How it was run: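 Proliferation of HR-deficient DLD-1 BRCA2−/− versus isogenic wild-type DLD-1 was measured by ATP luminescence (CellTiter-Glo 3D). Compound exposure lasted 12 or 7 days, respectively, with a fresh dose on day 6. IC50 was the concentration halving maximal signal.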

[1] = DLD-1, DLD-1 BRCA2-/- proliferation, column head only partly shown, read-out: POLQ PD Prolif Lumin (converted)
[2] = DLD-1, first proliferation column, DLD-1 BRCA2-/-, read-out: POLQ PD Prolif Lumin (converted)
[3] = DLD-1, proliferation, luminescence, taken as DLD-1 BRCA2-/-, read-out: POLQ PD Prolif Lumin (converted)
[4] = DLD-1, DLD-1 BRCA2 −/− cells, mean, read-out: POLQ PD Prolif Lumin BRCA2 −/− mean pIC50 (converted)
[5] = DLD-1, first proliferation column (c5), taken as DLD-1 BRCA2-/-, read-out: POLQ PD Prolif Lumin (converted)
[6] = DLD-1, first proliferation column (c5), DLD-1 BRCA2-/-, read-out: POLQ PD Prolif Lumin (converted)

Structure (SMILES): Cc1ccnc(Cn2c(-c3ccc(NCCN(C)C)cc3Cl)nc3c(OC4(C)CC4)ncnc32)c1 [Example T247, N1-(3-chloro-4-(6-(1-methylcyclopropoxy)-9-((4-methylpyridin-2-yl)methyl)-9H-purin-8-yl)phenyl)-N2,N2-dimethylethane-1,2-diamine]
- IC50 [1]: 501 nM

Structure (SMILES): COc1c(Cl)cccc1Cn1c(-c2ccc(OCCC(C)C(=O)O)cc2Cl)nc2c(OC3(C)CC3)ncnc21 (racemic) [Example U3, 4-(3-chloro-4-(9-(3-chloro-2-methoxybenzyl)-6-(1-methylcyclopropoxy)-9H-purin-8-yl)phenoxy)-2-methylbutanoic acid]
- IC50 (DLD-1, DLD-1 BRCA2 −/−, mean, read-out: POLQ PD Prolif Lumin BRCA2 −/− mean pIC50 (converted)): 3980 nM

Structure (SMILES): Cc1ccc(C)c(Cn2c(-c3ccc(OCCC(C)C(=O)O)cc3Cl)nc3c(OC4(C)CC4)ncnc32)c1 (single isomer, unassigned) [Example T573, 4-(3-chloro-4-(9-(2,5-dimethylbenzyl)-6-(1-methylcyclopropoxy)-9H-purin-8-yl)phenoxy)-2-methylbutanoic acid]
- IC50 [2]: 501 nM

Structure (SMILES): Cc1ccnc(Cn2c(-c3ccc(OCC(=O)N(C)C4COC4)cc3Cl)nc3c(OC4(C)CC4)ncnc32)c1 [Example T480, 2-(3-chloro-4-(6-(1-methylcyclopropoxy)-9-((4-methylpyridin-2-yl)methyl)-9H-purin-8-yl)phenoxy)-N-methyl-N-(oxetan-3-yl)acetamide]
- IC50 [3]: 501 nM

Structure (SMILES): Cc1nc(C)c(Cn2c(-c3ccc(CC(N)=O)cc3Cl)nc3c(OC4(C)CC4)ncnc32)s1 [Example T25, 2-(3-chloro-4-(9-((2,4-dimethylthiazol-5-yl)methyl)-6-(1-methylcyclopropoxy)-9H-purin-8-yl)phenyl)acetamide]
- IC50 [4]: 1000 nM

Structure (SMILES): Cn1nc(COc2ccc(-c3nc4c(OC5(C)CC5)ncnc4n3Cc3cccc(Cl)c3)c(Cl)c2)cc1C(=O)O [Example T394, 3-((3-chloro-4-(9-(3-chlorobenzyl)-6-(1-methylcyclopropoxy)-9H-purin-8-yl)phenoxy)methyl)-1-methyl-1H-pyrazole-5-carboxylic acid]
- IC50 [3]: 3160 nM

Structure (SMILES): CC(C)(COc1ccc(-c2nc3c(OC4(C)CC4)ncnc3n2Cc2cccc(Cl)c2)c(Cl)c1)CC(=O)O [Example T436, 4-(3-chloro-4-(9-(3-chlorobenzyl)-6-(1-methylcyclopropoxy)-9H-purin-8-yl)phenoxy)-3,3-dimethylbutanoic acid]
- IC50 [3]: 200 nM

Structure (SMILES): Cc1ccnc(Cn2c(-c3ccc(OCCNC(=O)CO)cc3Cl)nc3c(OC4(C)CC4)ncnc32)c1 [Example T227, N-(2-(3-chloro-4-(6-(1-methylcyclopropoxy)-9-((4-methylpyridin-2-yl)methyl)-9H-purin-8-yl)phenoxy)ethyl)-2-hydroxyacetamide]
- IC50 [1]: 316 nM

Structure (SMILES): Cc1ccnc(Cn2c(-c3ccc(O[C@H]4CCN(C(=O)[C@@H](C)O)C4)cc3Cl)nc3c(OC4(C)CC4)ncnc32)c1 [Example T584, (R)-1-((S)-3-(3-chloro-4-(6-(1-methylcyclopropoxy)-9-((4-methylpyridin-2-yl)methyl)-9H-purin-8-yl)phenoxy)pyrrolidin-1-yl)-2-hydroxypropan-1-one]
- IC50 [2]: 794 nM

Structure (SMILES): Cc1ccnc(Cn2c(-c3ccc(OCC(=O)NCCO)cc3Cl)nc3c(OC4(C)CC4)ncnc32)c1 [Example T226, 2-(3-chloro-4-(6-(1-methylcyclopropoxy)-9-((4-methylpyridin-2-yl)methyl)-9H-purin-8-yl)phenoxy)-N-(2-hydroxyethyl)acetamide]
- IC50 [1]: 158 nM

Structure (SMILES): Cc1ccnc(Cn2c(-c3ccc(CC(=O)NCCCO)cc3Cl)nc3c(OC4(C)CC4)ncnc32)c1 [Example T370, 2-(3-chloro-4-(6-(1-methylcyclopropoxy)-9-((4-methylpyridin-2-yl)methyl)-9H-purin-8-yl)phenyl)-N-(3-hydroxypropyl)acetamide]
- IC50 [5]: 1000 nM

Structure (SMILES): Cc1ccnc(Cn2c(-c3ccc(OCCN4CCNCC4=O)cc3Cl)nc3c(OC4(C)CC4)ncnc32)c1 [Example T498, 1-(2-(3-chloro-4-(6-(1-methylcyclopropoxy)-9-((4-methylpyridin-2-yl)methyl)-9H-purin-8-yl)phenoxy)ethyl)piperazin-2-one]
- IC50 [6]: 316 nM

Structure (SMILES): COc1cc(Cl)cc(Cn2c(-c3ccc(OCCC(C)C(=O)O)cc3Cl)nc3c(OC4(C)CC4)ncnc32)c1 (single isomer, unassigned) [Example T446, 4-(3-chloro-4-(9-(3-chloro-5-methoxybenzyl)-6-(1-methylcyclopropoxy)-9H-purin-8-yl)phenoxy)-2-methylbutanoic acid]
- IC50 [3]: 316 nM

Structure (SMILES): Cc1ccnc(Cn2c(-c3ccc(OCCN4CCOCC4=O)cc3Cl)nc3c(OC4(C)CC4)ncnc32)c1 [Example T481, 4-(2-(3-chloro-4-(6-(1-methylcyclopropoxy)-9-((4-methylpyridin-2-yl)methyl)-9H-purin-8-yl)phenoxy)ethyl)morpholin-3-one]
- IC50 [3]: 316 nM

Structure (SMILES): COC(=O)Nc1ccc(-c2nc3c(OC4(C)CC4)ncnc3n2Cc2cc(C)ccn2)c(Cl)c1 [Example T62, methyl (3-chloro-4-(6-(1-methylcyclopropoxy)-9-((4-methylpyridin-2-yl)methyl)-9H-purin-8-yl)phenyl)carbamate]
- IC50 [4]: 251 nM

Structure (SMILES): Cc1cc(Cn2c(-c3ccc(CC(N)=O)cc3Cl)nc3c(OC4(C)CC4)ncnc32)ncn1 [Example T19, 2-(3-chloro-4-(6-(1-methylcyclopropoxy)-9-((6-methylpyrimidin-4-yl)methyl)-9H-purin-8-yl)phenyl)acetamide]
- IC50 [4]: > 10000 nM

Structure (SMILES): Cc1ccnc(Cn2c(-c3ccc(C(=O)N4CC[C@@H](CO)C4)cc3Cl)nc3c(OC4(C)CC4)ncnc32)c1 [Example T464, (R)-(3-chloro-4-(6-(1-methylcyclopropoxy)-9-((4-methylpyridin-2-yl)methyl)-9H-purin-8-yl)phenyl)(3-(hydroxymethyl)pyrrolidin-1-yl)methanone]
- IC50 [3]: 1580 nM

Structure (SMILES): Cc1ccnc(Cn2c(-c3ccc(N4CCNCC4=O)cc3Cl)nc3c(OC4(C)CC4)ncnc32)c1 [Example T202, 1-(3-chloro-4-(6-(1-methylcyclopropoxy)-9-((4-methylpyridin-2-yl)methyl)-9H-purin-8-yl)phenyl)piperazin-2-one]
- IC50 [1]: 2510 nM

Structure (SMILES): CC1(Oc2ncnc3c2nc(-c2ccc(OCCC(=O)NS(C)(=O)=O)cc2Cl)n3Cc2cccc(Cl)c2)CC1 [Example T189, 3-(3-chloro-4-(9-(3-chlorobenzyl)-6-(1-methylcyclopropoxy)-9H-purin-8-yl)phenoxy)-N-(methylsulfonyl)propanamide]
- IC50 [6]: 3980 nM

Structure (SMILES): COc1cnnc(Cn2c(-c3ccc(CC(N)=O)cc3Cl)nc3c(OC4(C)CC4)ncnc32)c1 [Example T22, 2-(3-chloro-4-(9-((5-methoxypyridazin-3-yl)methyl)-6-(1-methylcyclopropoxy)-9H-purin-8-yl)phenyl)acetamide]
- IC50 [4]: 3980 nM

Structure (SMILES): CC(CCCOc1cccc(-c2nc3c(OC4(C)CC4)ncnc3n2Cc2cccc(Cl)c2)c1Cl)C(=O)O (single isomer, unassigned) [Example T443, 5-(2-chloro-3-(9-(3-chlorobenzyl)-6-(1-methylcyclopropoxy)-9H-purin-8-yl)phenoxy)-2-methylpentanoic acid]
- IC50 [3]: 79.4 nM

Structure (SMILES): CC1(Oc2ncnc3c2nc(-c2ccc(OCCN4C[C@H]5CC[C@@H]4CN5)cc2Cl)n3Cc2ccccc2)CC1 (relative stereo) [Example T604, rel-(1R,4R)-2-(2-(4-(9-benzyl-6-(1-methylcyclopropoxy)-9H-purin-8-yl)-3-chlorophenoxy)ethyl)-2,5-diazabicyclo[2.2.2]octane]
- IC50 [2]: 251 nM

Structure (SMILES): Cc1ccnc(Cn2c(-c3ccc(CC(=O)NCC(F)F)cc3Cl)nc3c(OC4(C)CC4)ncnc32)c1 [Example T165, 2-(3-chloro-4-(6-(1-methylcyclopropoxy)-9-((4-methylpyridin-2-yl)methyl)-9H-purin-8-yl)phenyl)-N-(2,2-difluoroethyl)acetamide]
- IC50 [6]: 100 nM

Structure (SMILES): Cc1ccnc(Cn2c(-c3ccc(OCC(=O)N4CC[C@@H](O)C4)cc3Cl)nc3c(OC4(C)CC4)ncnc32)c1 [Example T473, (R)-2-(3-chloro-4-(6-(1-methylcyclopropoxy)-9-((4-methylpyridin-2-yl)methyl)-9H-purin-8-yl)phenoxy)-1-(3-hydroxypyrrolidin-1-yl)ethan-1-one]
- IC50 [3]: 1000 nM

Structure (SMILES): Cc1ccnc(Cn2c(-c3ccc(C(=O)N4CCC[C@H](O)C4)cc3Cl)nc3c(OC4(C)CC4)ncnc32)c1 [Example T461, (S)-(3-chloro-4-(6-(1-methylcyclopropoxy)-9-((4-methylpyridin-2-yl)methyl)-9H-purin-8-yl)phenyl)(3-hydroxypiperidin-1-yl)methanone]
- IC50 [3]: 1260 nM

Structure (SMILES): CC1(Oc2ncnc3c2nc(-c2ccc(OCCN4CCNCC4)cc2Cl)n3Cc2ccc(F)cn2)CC1 [Example T350, 8-(2-chloro-4-(2-(piperazin-1-yl)ethoxy)phenyl)-9-((5-fluoropyridin-2-yl)methyl)-6-(1-methylcyclopropoxy)-9H-purine]
- IC50 [5]: 2510 nM

Structure (SMILES): Cc1ccnc(Cn2c(-c3ccc(N)cc3Cl)nc3c(OC4(C)CC4)ncnc32)c1 [Example T3, 3-chloro-4-(6-(1-methylcyclopropoxy)-9-((4-methylpyridin-2-yl)methyl)-9H-purin-8-yl)aniline]
- IC50 [4]: 200 nM

Structure (SMILES): CC1(Oc2ncnc3c2nc(-c2ccc(O[C@H]4CC[C@@H](C(=O)O)CC4)cc2Cl)n3Cc2ccccc2C#N)CC1 [Example U16, (1s,4s)-4-(3-chloro-4-(9-(2-cyanobenzyl)-6-(1-methylcyclopropoxy)-9H-purin-8-yl)phenoxy)cyclohexane-1-carboxylic acid]
- POLQ PD Prolif Lumin BRCA2 −/− mean pIC50 (DLD-1 BRCA2 −/−, mean): 6.4
